Data set [1] deals with T1, IL-6 (Homo sapiens, UniProt P05231). As to the kind of experiment: ELISA of IL-6 binding to anti-IL6 antibody after exposure to HOCl or HOBr. The note with it: IL-6 exposed for 5 minutes at concentrations >2 ppm, halogen quenched before incubation. The protocol:
An ELISA assay (Fisher Scientific) was used to detect binding changes between IL6 and anti-IL6 antibody binding in the presence of HOCl or HOBr. Anti-human IL6 antibody was immobilized to a polystyrene 96 well plate as the capture antibody. IL-6 was exposed to various concentrations of HOCl or HOBr for 5 minutes. The active halogen was quenched before incubation with the coated plate wells. A second anti-human IL6 antibody was introduced to the coated wells and served as a detector to an enzyme-mediated chromophore indicator system.
The inhibition of IL-6 reactivity by exposure to HOCl is illustrated in FIG. 1.
For orientation: ELISA stands for enzyme-linked immunosorbent assay.

The target of data set [2] is T1, IL-6. As to the kind of experiment: IL-6 bioassay (Promega), luminescence in receptor-expressing human cells. It is filed as cell-based. As to the method:
An IL-6 bioassay (Promega) was used to determine the effect of HOCl on IL-6 binding to human cells triggering a change in luminescence. IL-6 was incubated with various concentrations of HOCl and quenched, before addition to the receptor-expressing human cells.
Binding of the cytokine was measured by luminescence.

The subject of data set [3] is mouse. The note with it: in vivo. The text has this: (§1) Experimental exposures of rodents were done according to OECD method 423 for acute oral toxicity assessment, OECD method 434 for acute dermal toxicity and OECD method 433 for acute inhalation.
Data set [4] concerns mouse. Conditions: in vivo.
Excerpt: as §1
This is another data set of the same source.

A further data set deals with human subjects. As to the kind of experiment: Safety of human volunteers exposed to microaerosolized HOCl via inhalation. Conditions: dense microaerosols for 2-5 minutes, 400 episodes. It is filed as in vivo. As to the method:
The safety of exposure of human subjects to microaerosolized pure stable HOCl via the respiratory route was evaluated.
Human volunteers were exposed to dense microaerosols of HOCl for periods of 2-5 minutes and submitted subjective reports of the outcomes of these experiences. Data on a total of 400 such episodes were collected under medical supervision.

SMILES strings stand for the structures. Where two headings read alike, the source gives them in different places.

T1 sequence (P05231 30-212): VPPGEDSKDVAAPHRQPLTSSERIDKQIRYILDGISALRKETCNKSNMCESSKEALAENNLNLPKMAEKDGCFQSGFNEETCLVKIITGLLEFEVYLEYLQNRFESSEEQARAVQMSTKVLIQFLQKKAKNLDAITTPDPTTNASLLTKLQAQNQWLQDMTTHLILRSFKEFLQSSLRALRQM

In the case of `OBr` [HOBr, Hypobromous acid], on IL-6 [1], the “binding of IL-6 to the capture antibody” value is “undetectable”.
With `OCl` [HOCl, hypochlorous acid], the “binding of IL-6 to the capture antibody” value on IL-6 [1] is reported as “no detectable binding”. Further, the “capacity of the cytokine to initiate transmembrane signaling” value at IL-6 [2] (IL-6 exposed to HOCl) was “complete inhibition”. Also, the “luminescence of HOCl-treated IL-6” value on IL-6 [2] (all concentrations tested, IL-6 incubated with HOCl and quenched before addition to cells) is reported as “significantly reduced luminescence”. For the same compound, in the data set with mouse [3], the Result/Behavior entry is recorded as “No change” and the Result/Histopathology result was “No”. Also, in the data set on mouse [4], the Result/Behavior entry was “No change” and the Result/Histopathology entry is listed as “No”. Besides, the serious adverse effects result in the data set on human subjects was “No serious adverse effects”. The “minor complaints (nose irritation, slight impact on ease of deep breathing)” value with human subjects (disappeared upon cessation of exposure) is reported as “approximately 3%”.

The record behind these values is patent US20240408132A1, “HYPOHALOUS ACIDS FOR TREATING INFLAMMATORY DISEASES AND INHIBITING GROWTH OF MALIGNANCIES” (BT Manufacturing, LLC, priority 2020, published 2024).
